Experimental data published in patent US20240108737A1, “ANTI-INFECTIVE BICYCLIC PEPTIDE LIGANDS” (priority 2021, published 2024).
*1 amine or outer side, *2 acyl side, *3 side chain or, on linkers, in order; H or OH if unused. Where a SMILES comes first, the peptide text is derived from it. Bridges are numbered along the chain shown (N, C = ends). Roman numbers before positions name the chains, in order. [ ]: non-standard residue; d: D form. X1 = O=C(CCOCCOCCOCCOCCOCCOCCOCCOCCOCCOCCOCCOCCOCCOCCOCCOCCOCCOCCOCCOCCOCCOCCOCCOCCn1cc(CCC(=O)[*:2])nn1)[*:1]; TATB = O=C(C[*:1])N1CN(C(=O)C[*:2])CN(C(=O)C[*:3])C1; X2 = C(c1nc(C[*:2])nc(C[*:3])n1)[*:1]; hArg = N=C(N)NCCCC[C@H](N)C(=O)O; tBuAla = CC(C)(C)C[C@H](N)C(=O)O

Tested on: SARS-CoV-2 pseudotyped HIV-1 virions, D614G

SMILES: CC(=O)N[C@H]1CSCC(=O)N2CN3CN(C2)C(=O)CSC[C@H](NC(=O)[C@H](C(C)C)NC(=O)[C@@H]2CCCN2C(=O)[C@H](CC(N)=O)NC(=O)[C@H](CC(=O)O)NC(=O)[C@@H]2CCCN2C(=O)[C@H](CC(N)=O)NC(=O)[C@H](C)NC1=O)C(=O)N[C@@H](CCCNC(=N)N)C(=O)N[C@@H](Cc1ccccc1)C(=O)N[C@@H](Cc1ccc(O)cc1)C(=O)N[C@H](C(=O)N[C@@H](CCCCNC(=O)CCOCCOCCOCCOCCOCCOCCOCCOCCOCCOCCOCCOCCOCCOCCOCCOCCOCCOCCOCCOCCOCCOCCOCCOCCn1cc(CCC(=O)NCCCC[C@H](NC(=O)[C@@H]2CSCc4nc5nc(n4)CSC[C@H](NC(C)=O)C(=O)N4CCC[C@H]4C(=O)N[C@@H](Cc4ccc(O)cc4)C(=O)N[C@@H](C(C)C)C(=O)N[C@@H](C)C(=O)NCC(=O)N[C@@H](CCCCNC(=N)N)C(=O)N[C@H](C)C(=O)N[C@@H]([C@@H](C)O)C(=O)N[C@@H](CSC5)C(=O)N[C@@H](CC(C)C)C(=O)N[C@@H](CC(C)(C)C)C(=O)N2)C(N)=O)nn1)C(N)=O)CSCC3=O [BCY18786] (I: Ac-CANPDNPVCRFYCK-NH2 / II: Ac-CPYVAG[hArg][dA]TCL[tBuAla]CK-NH2; linker I:1-I:9-I:13 via TATB; linker I:14-II:14 via X1; linker II:1-II:10-II:13 via X2)
- IC50: 0.02 µM
